This passage reports IC50 and MIC results from patent US20220002279A1, “NOVEL IMIDAZOLE DERIVATIVE” (priority 2018, published 2022).

The term IC50 denotes the concentration that gives 50% inhibition. The term MIC denotes the smallest concentration in the dilution series that meets the test's criterion for growth inhibition.

The target in experiment [1] is T1, Escherichia coli LpxC enzyme (Escherichia coli, UniProt P0A725).
T1 construct: made in house; host or cells: Escherichia coli
T1 sequence (P0A725 1-305): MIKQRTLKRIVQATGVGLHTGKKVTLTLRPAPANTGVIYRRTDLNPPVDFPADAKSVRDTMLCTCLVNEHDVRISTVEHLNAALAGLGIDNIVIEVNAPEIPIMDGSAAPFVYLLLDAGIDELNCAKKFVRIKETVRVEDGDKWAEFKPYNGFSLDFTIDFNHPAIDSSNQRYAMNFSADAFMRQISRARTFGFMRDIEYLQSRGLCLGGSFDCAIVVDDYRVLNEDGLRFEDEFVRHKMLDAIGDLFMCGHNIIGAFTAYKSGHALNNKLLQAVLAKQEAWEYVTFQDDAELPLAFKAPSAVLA
Briefly: Inhibitory activity on Escherichia coli LpxC enzyme (fluorescamine method). The experiment is classed as biochemical. The following applies: fluorescamine detection; 3.1 nmol/L enzyme, 20 μmol/L substrate, pH 6.5, 120 min; read-out: IC50 (inhibitory activity on Escherichia coli LpxC enzyme, Fluoresamine method). Put shortly: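 LpxC reacted with UDP-3-O-(R-3-hydroxymyristoyl)-N-acetylglucosamine; product amine quantified after fluorescamine stop and pH 8.0 phosphate buffer addition, at 390 nm/495 nm. Inhibition curve built from a range of test compound concentrations.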

The test system of experiment [2] is Pseudomonas aeruginosa strain ATCC27853. Description: Antimicrobial activity, MIC by broth microdilution. The experiment is classed as cell-based. Conditions: ATCC27853, 18 h, cation-adjusted Mueller-Hinton broth, about 5×10^5 CFU/mL, 35° C., about 18 hours, read-out: MIC Pseudomonas aeruginosa ATCC27853. Put shortly: (§1)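 CLSI-based broth microdilution in cation-adjusted Mueller-Hinton broth, inoculum about 5×10^5 CFU/mL from overnight heart infusion agar culture. Incubation 35° C. about 18 h; MIC is the lowest concentration with no visible growth.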
For orientation: In broth dilution the organism is exposed to a series of concentrations in liquid medium.

In experiment [3] the test system is Escherichia coli strain ATCC25922. Briefly: Antimicrobial activity, MIC by broth microdilution. The experiment is classed as cell-based. Conditions: ATCC25922, 18 h, cation-adjusted Mueller-Hinton broth, about 5×10^5 CFU/mL, 35° C., about 18 hours, read-out: MIC Escherichia coli ATCC25922. The gist of the method: as §1
In experiment [4] the test system is Klebsiella pneumoniae strain ATCC13883. Briefly: Antimicrobial activity, MIC by broth microdilution. In kind it is cell-based. Conditions: ATCC13883, cation-adjusted Mueller-Hinton broth, about 5×10^5 CFU/mL, 35° C., about 18 hours, read-out: MIC Klebsiella pneumoniae ATCC13883. Put shortly:
as §1

Experiment [5] addresses T2, Pseudomonas aeruginosa LpxC enzyme (Pseudomonas aeruginosa, UniProt P47205).
T2 construct: made in house; host or cells: Escherichia coli
T2 sequence (P47205 1-303): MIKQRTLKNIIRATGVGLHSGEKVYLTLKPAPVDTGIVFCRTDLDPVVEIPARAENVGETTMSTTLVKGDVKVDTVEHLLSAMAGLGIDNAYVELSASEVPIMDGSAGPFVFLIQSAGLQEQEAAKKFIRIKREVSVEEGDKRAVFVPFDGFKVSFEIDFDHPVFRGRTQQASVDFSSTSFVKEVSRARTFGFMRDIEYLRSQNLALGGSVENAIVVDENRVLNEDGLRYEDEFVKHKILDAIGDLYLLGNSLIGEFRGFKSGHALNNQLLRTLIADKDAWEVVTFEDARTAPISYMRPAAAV
Description: Inhibitory activity on Pseudomonas aeruginosa LpxC enzyme (fluorescamine method). In kind it is biochemical. Conditions: fluorescamine detection; 3.6 nmol/L enzyme, 20 μmol/L substrate, pH 8.0, 60 min. From the text: Test Example 1 Evaluation of the Inhibitory Activity on Pseudomonas aeruginosa LpxC Enzyme (Fluoresamine Method)
To assay the activity of Pseudomonas aeruginosa LpxC enzyme, LpxC was reacted with its substrate, UDP-3-O-(R-3-hydroxydecanoyl)-N-acetylglucosamine, and the amount of the reaction product was quantified by the amino groups present in the product.
Specifically, to 3.6 nmol/L Pseudomonas aeruginosa LpxC enzyme (as acquired by preparing chromosomal DNA from Pseudomonas aeruginosa, obtaining the Pseudomonas aeruginosa LpxC genes by PCR (polymerase chain reaction) using LpxC specific primer, and incorporating the genes into a vector, followed by expression using Escherichia coli), 20 μmol/L UDP-3-O-(R-3-hydroxydecanoyl)-N-acetylglucosamine (Carbosynth) was added, and the mixture was incubated at room temperature for 60 minutes. This reaction was performed in a 40 mmol/L-HEPES buffer solution (pH 8.0) containing 0.02% Brij 35 and 25 nmol/L-zinc chloride. The reaction was terminated by the addition of 1.0 mg/mL-fluorescamine dissolved in a solvent obtained by mixing an equal amount of acetonitrile and dimethylformamide with the reaction mixture, and then, a 0.2 mol/L-sodium phosphate buffer solution (pH 8.0) was added thereto, and the amount of the reaction product was detected at an excitation wavelength/fluorescence wavelength=390 nm/495 nm. An inhibition curve was obtained by performing the aforementioned reaction in the presence of various concentrations of test compounds. From this inhibition curve, the concentration of test compound at which the amount of the reaction product was suppressed by 50% (IC50 value) was determined, which was used as an index for the inhibitory activity on Pseudomonas aeruginosa LpxC enzyme.

Experiment [6] addresses T1, Escherichia coli LpxC enzyme. Briefly: Inhibitory activity on Escherichia coli LpxC enzyme (LCMS method). The following applies: LC-MS/MS detection; 3.1 nmol/L enzyme, 20 μmol/L substrate, pH 6.5, 120 min; read-out: IC50 (inhibitory activity on Escherichia coli LpxC enzyme, LCMS method). The experiment is classed as biochemical. From the text: Test Example 3 Evaluation of the Inhibitory Activity on Escherichia coli LpxC Enzyme (LCMS Method)
To assay the activity of Escherichia coli LpxC enzyme, LpxC was reacted with its substrate, UDP-3-O-(R-3-hydroxymyristoyl)-N-acetylglucosamine, and the amount of the reaction product was quantified by liquid chromatography tandem mass spectrometry.
Specifically, to 3.1 nmol/L Escherichia coli LpxC enzyme (as acquired by preparing chromosomal DNA from Escherichia coli, obtaining the Escherichia coli LpxC genes by PCR (polymerase chain reaction) using LpxC specific primer, and incorporating the genes into a vector, followed by expression using Escherichia coli), 20 μmol/L UDP-3-O-(R-3-hydroxymyristoyl)-N-acetylglucosamine (Alberta) was added, and the mixture was incubated at room temperature for 120 minutes. This reaction was performed in a 40 mmol/L-2-morpholinoethanesulfonic acid buffer solution (pH 6.5) containing 0.02% Brij 35, 25 nmol/L-zinc chloride, and 80 μmol/L-dithiothreitol. The reaction was terminated by the addition of acetonitrile containing 25 μmol/L-UDP-N-acetylglucosamine as an internal standard to the reaction mixture. Centrifugation was performed and the amount of the substrate and the reaction product in the supernatant was detected by liquid chromatography tandem mass spectrometry. An inhibition curve was obtained by performing the aforementioned reaction in the presence of various concentrations of test compounds. From this inhibition curve, the concentration of test compound at which the amount of the reaction product was suppressed by 50% (IC50 value) was determined, which was used as an index for the inhibitory activity on Escherichia coli LpxC enzyme.

Values after ≈ are worked out from the molar mass of the structure shown. Bounds are passed on as bounds.

Consider `C[C@H](O)c1nccn1Cc1cc(-c2ccc(C#CC3CC3CO)cc2)on1` (stereo in doubt) [Compound 7, (1S)-1-(1-{[5-(4-{[trans-2-(hydroxymethyl)cyclopropyl]ethynyl}phenyl)-1,2-oxazol-3-yl]methyl}-1H-imidazol-2-yl)ethan-1-ol], for which the IC50 was determined as 15.4 nM in experiment [1] and 4.44 nM in experiment [5]. Besides, the values for the minimal inhibitory concentration (MIC) in experiment [2], in experiment [3] and in experiment [4] were 16 µg/mL (≈ 44 µM), 0.25 µg/mL (≈ 0.688 µM) and 0.5 µg/mL (≈ 1.38 µM), respectively.
`C[C@H](O)c1nccn1Cc1cc(-c2ccc(C#CCCCO)cc2)on1` [Compound 1, 5-{4-[3-({2-[(1S)-1-Hydroxyethyl]-1H-imidazol-1-yl}methyl)-1,2-oxazol-5-yl]phenyl}pent-4-yn-1-ol]: the IC50 in experiment [1] was determined as 51 nM; in experiment [5] it was 13.2 nM. The MIC in experiment [2] came to 64 µg/mL (≈ 182 µM); in experiment [3] it was 1 µg/mL (≈ 2.85 µM); in experiment [4], 2 µg/mL (≈ 5.69 µM).
The like results for `C[C@H](O)c1nccn1Cc1cc(-c2ccc(C#CCCCO)c(F)c2)on1` [Compound 2, 5-{2-fluoro-4-[3-({2-[(1S)-1-hydroxyethyl]-1H-imidazol-1-yl}methyl)-1,2-oxazol-5-yl]phenyl} pent-4-yn-1-ol] were, in that order, 16.9 nM, 6.92 nM, 64 µg/mL (≈ 173 µM), 1 µg/mL (≈ 2.71 µM) and 2 µg/mL (≈ 5.41 µM).
For the compound `C[C@H](O)c1nccn1Cc1cc(-c2ccc(C#CCCCO)cc2F)on1` [Compound 3, 5-{3-fluoro-4-[3-({2-[(1S)-1-hydroxyethyl]-1H-imidazol-1-yl}methyl)-1,2-oxazol-5-yl]phenyl}pent-4-yn-1-ol], the values for the IC50 in experiment [1] and in experiment [5] were 16.1 nM and 4.36 nM, respectively. For the same compound, the MIC in experiment [2] came out at 32 µg/mL (≈ 86.6 µM); in experiment [3], 0.5 µg/mL (≈ 1.35 µM); in experiment [4], 1 µg/mL (≈ 2.71 µM).
On to `C[C@H](O)c1nccn1Cc1cc(-c2ccc(C#C[C@@H]3[C@H]4CN(C[C@H](O)CO)C[C@@H]34)cc2)on1` [Compound 11, (2S)-3-[(1R,5S,6R)-6-({4-[3-({2-[(1S)-1-Hydroxyethyl]-1H-imidazol-1-yl}methyl)-1,2-oxazol-5-yl]phenyl}ethynyl)-3-azabicyclo[3.1.0]hexan-3-yl]propan-1,2-diol], for which the IC50 in experiment [1] was 102 nM; in experiment [5], 3.78 nM. Further, the values for the MIC in experiment [2], in experiment [3] and in experiment [4] were 8 µg/mL (≈ 17.8 µM), 1 µg/mL (≈ 2.23 µM) and 2 µg/mL (≈ 4.46 µM), respectively.
Regarding `C[C@H](O)c1nccn1Cc1cc(-c2ccc(C#C[C@@H]3[C@H]4CN(CCO)C[C@@H]34)cc2)on1` [Compound 19, (1S)-1-(1-{[5-(4-{[(1R,5S,6s)-3-(2-Hydroxyethyl)-3-azabicyclo[3.1.0]hexan-6-yl]ethynyl}phenyl)-1,2-oxazol-3-yl]methyl}-1H-imidazol-2-yl)ethan-1-ol], the values for the half-inhibitory concentration (IC50) in experiment [1] and in experiment [5] were 123 nM and 2.03 nM, respectively. Besides, the MIC in experiment [2] was found to be 8 µg/mL (≈ 19.1 µM); in experiment [3], 0.5 µg/mL (≈ 1.19 µM); in experiment [4], 1 µg/mL (≈ 2.39 µM).
For `C[C@H](O)c1nccn1[C@H](CN)c1cc(-c2ccc(C#CC34CC(N)(C3)C4)cc2)on1` [Compound 20, (1S)-1-{1-[(1R)-2-amino-1-(5-{4-[(3-aminobicyclo[1.1.1]pentan-1-yl)ethynyl]phenyl}-1,2-oxazol-3-yl)ethyl]-1H-imidazol-2-yl}ethan-1-ol], the minimal inhibitory concentration (MIC) amounted to 4 µg/mL (≈ 9.91 µM) in experiment [2], 0.5 µg/mL (≈ 1.24 µM) in experiment [3] and 2 µg/mL (≈ 4.96 µM) in experiment [4]. Moreover, in experiment [6], the IC50 was 279 nM.
Regarding `C[C@H](O)c1nccn1[C@H](CN)c1cc(-c2ccc(C#CC3(N)CC3)cc2)on1` [Compound 21, (1S)-1-{1-[(1R)-2-amino-1-(5-(4-[(1-aminocyclopropyl)ethynyl]phenyl}-1,2-oxazol-3-yl)ethyl]-1H-imidazol-2-yl}ethan-1-ol], the results for the MIC in experiment [2], in experiment [3] and in experiment [4] were 32 µg/mL (≈ 84.8 µM), 2 µg/mL (≈ 5.3 µM) and 8 µg/mL (≈ 21.2 µM), respectively. In addition, in experiment [6], the IC50 stood at 282 nM.
For `C[C@H](O)c1nccn1[C@H](CN)c1cc(-c2ccc(C#C[C@@H]3[C@H]4CN(CCO)C[C@@H]34)cc2)on1` [Compound 22, (1S)-1-(1-{(1R)-2-Amino-1-[5-(4-{[(1R,5S,6s)-3-(2-hydroxyethyl)-3-azabicyclo[3.1.0]hexan-6-yl]ethynyl}phenyl)-1,2-oxazol-3-yl]ethyl}-1H-imidazol-2-yl)ethan-1-ol], the minimum inhibitory concentration (MIC) in experiment [2] was determined as 2 µg/mL (≈ 4.47 µM); in experiment [3], 2 µg/mL (≈ 4.47 µM); in experiment [4], 4 µg/mL (≈ 8.94 µM). For the same compound, the IC50 in experiment [6] was found to be 655 nM.
As to `C[C@H](O)c1nccn1Cc1cc(-c2ccc(C#CC3CC(N)(C#N)C3)cc2)on1` (stereo partly drawn) [Compound 24, 1-Amino-3-({4-[3-({2-[(1S)-1-hydroxyethyl]-1H-imidazol-1-yl}methyl)-1,2-oxazol-5-yl]phenyl}ethynyl)cyclobutane-1-carbonitrile], the minimum inhibitory concentration (MIC) in experiment [2] worked out at 128 µg/mL (≈ 330 µM); in experiment [3], 2 µg/mL (≈ 5.16 µM); in experiment [4], 4 µg/mL (≈ 10.3 µM). Besides, in experiment [6], the IC50 was under 37 nM.
Turning to `C[C@H](O)c1nccn1Cc1cc(-c2ccc(C#CC3CC(N)(C(N)=O)C3)cc2)on1` (stereo partly drawn) [Compound 25, 1-Amino-3-({4-[3-({2-[(1S)-1-hydroxyethyl]-1H-imidazol-1-yl}methyl)-1,2-oxazol-5-yl]phenyl}ethynyl)cyclobutane-1-carboxamide], the minimal inhibitory concentration (MIC) worked out at 32 µg/mL (≈ 78.9 µM) in experiment [2], 2 µg/mL (≈ 4.93 µM) in experiment [3] and 8 µg/mL (≈ 19.7 µM) in experiment [4]. Besides, in experiment [6], the IC50 was found to be 52.2 nM.
As to `C[C@H](O)c1nccn1Cc1cc(-c2ccc(C#CC3(N)CC3)cc2)no1` [Compound 27, (1S)-1-{1-[(3-(4-[(1-aminocyclopropyl)ethynyl]phenyl}-1,2-oxazol-5-yl)methyl]-1H-imidazol-2-yl}ethan-1-ol], the MIC in experiment [2] is over 128 µg/mL; in experiment [3] it was 1 µg/mL (≈ 2.87 µM); in experiment [4], 4 µg/mL (≈ 11.5 µM). Further, the IC50 in experiment [6] came out at 193 nM.
